Results from patent publication US8859574B2 (IRM LLC, priority 2008, dated 2014).

target: T1, IGF-1R Ba/F3 (Homo sapiens, UniProt P08069); test: Ba/F3 Cell Viability Inhibition Assay (IGF-1R Ba/F3); assay type: cell-based, murine; details: Tel-TK transformed Ba/F3 cells, 48 hours, Britelite luminescence
T1 construct: fused on or other part: TEL- (or BCR-) IGF-1R in Ba/F3: the kinase part holds the site
Summary of the method: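 IL-3-independent murine Ba/F3 cells transformed with a TEL/BCR-fused IGF-1R kinase were seeded at 3750 cells/well and exposed to serially diluted compound for 48 h at 37 °C. Viability was read by Britelite luminescence. IC50 is the concentration giving 50% of DMSO-control viability, from a logistic fit.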

T1 sequence (P08069 999-1274 limits assumed): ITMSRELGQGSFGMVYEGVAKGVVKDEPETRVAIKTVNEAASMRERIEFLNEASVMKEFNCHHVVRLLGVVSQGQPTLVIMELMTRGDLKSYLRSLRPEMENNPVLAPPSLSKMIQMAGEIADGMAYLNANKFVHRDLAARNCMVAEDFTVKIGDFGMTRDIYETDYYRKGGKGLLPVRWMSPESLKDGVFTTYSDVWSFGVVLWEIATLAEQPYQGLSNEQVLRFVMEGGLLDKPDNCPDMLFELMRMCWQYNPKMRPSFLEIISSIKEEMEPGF

Row | SMILES | IC50 [µM]
1 | Cc1cc(Nc2nc(Nc3cc(C)c(C4CCN(C(=O)c5nc(C(C)C)no5)CC4)cc3C)ncc2Cl)n[nH]1 [Compound 270, (4-(4-(5-chloro-4-(5-methyl-1H-pyrazol-3-ylamino)pyrimidin-2-ylamino)-2,5-dimethylphenyl)piperidin-1-yl)(3-isopropyl-1,2,4-oxadiazol-5-yl)methanone] | 0.018
2 | CCOC(=O)N1CCC(c2cc(F)c(Nc3ncc(Cl)c(Nc4cc(C)[nH]n4)n3)cc2C)CC1 [Compound 66, Ethyl 4-(4-(5-chloro-4-(5-methyl-1H-pyrazol-3-ylamino)pyrimidin-2-ylamino)-5-fluoro-2-methylphenyl)piperidine-1-carboxylate] | 0.064
3 | Cc1cc(Nc2nc(Nc3cc(Cl)c(C4CCN(C(=O)CN5CCC5)CC4)cc3C)ncc2Cl)n[nH]1 [Compound 96, 2-(azetidin-1-yl)-1-(4-(2-chloro-4-(5-chloro-4-(5-methyl-1H-pyrazol-3-ylamino)pyrimidin-2-ylamino)-5-methylphenyl)piperidin-1-yl)ethanone] | 0.024
4 | Cc1cc(Nc2ncc(Cl)c(N[C@@H]3CCCCNC3=O)n2)c(F)cc1C1CCN(C)CC1 (single isomer, unassigned) [Compound 11] | 0.065
5 | Cc1cc(Nc2ncc(Cl)c(Nc3cc(C(F)(F)F)[nH]n3)n2)c(F)cc1C1CCNCC1 [Compound 171, 5-chloro-N2-(2-fluoro-5-methyl-4-(piperidin-4-yl)phenyl)-N4-(5-(trifluoromethyl)-1H-pyrazol-3-yl)pyrimidine-2,4-diamine] | 0.067
6 | Cc1noc(CN2CCC(c3cc(C)c(Nc4ncc(Cl)c(Nc5cc(C)[nH]n5)n4)cc3C)CC2)n1 [Compound 302, 5-chloro-N2-(2,5-dimethyl-4-(1-((3-methyl-1,2,4-oxadiazol-5-yl)methyl)piperidin-4-yl)phenyl)-N4-(5-methyl-1H-pyrazol-3-yl)pyrimidine-2,4-diamine] | 0.006
7 | Cc1cc(Nc2nc(Nc3cc(C)c(C4CCN([C@H]5CC[C@@H](O)CC5)CC4)cc3F)ncc2Cl)n[nH]1 [Compound 311, Cis-4-(4-(4-(5-chloro-4-(5-methyl-1H-pyrazol-3-ylamino)pyrimidin-2-ylamino)-5-fluoro-2-methylphenyl)piperidin-1-yl)cyclohexanol] | 0.021
8 | Cc1cc(Nc2nc(Nc3cc(C)c(C4CCN(CC(N)=O)CC4)cc3C)ncc2C(F)(F)F)n[nH]1 [Compound 202, 2-(4-(2,5-dimethyl-4-(4-(5-methyl-1H-pyrazol-3-ylamino)-5-(trifluoromethyl)pyrimidin-2-ylamino)phenyl)piperidin-1-yl)acetamide] | 0.02
9 | Cc1cc(Nc2nc(Nc3cc(C)c(C4CCN(C5CCS(=O)(=O)CC5)CC4)cc3C)ncc2Cl)n[nH]1 [Compound 146] | 0.258
10 | Cc1ccc(N2CCC(c3cc(F)c(Nc4ncc(Cl)c(Nc5cc(C)[nH]n5)n4)cc3C)CC2)nn1 [Compound 277, 5-Chloro-N2-(2-fluoro-5-methyl-4-(1-(6-methylpyridazin-3-yl)piperidin-4-yl)phenyl)-N4-(5-methyl-1H-pyrazol-3-yl)pyrimidine-2,4-diamine] | 0.097
11 | Cc1cc(Nc2nc(Nc3cc(C)c(C4CCN(CCO)CC4)cc3C)ncc2C(F)(F)F)n[nH]1 [Compound 222, 2-(4-(2,5-dimethyl-4-(4-(5-methyl-1H-pyrazol-3-ylamino)-5-(trifluoromethyl)pyrimidin-2-ylamino)phenyl)piperidin-1-yl)ethanol] | 0.038
12 | Cc1cc(Nc2nc(Nc3cc(C)c(C4CCN(C(=O)CN(C)C)CC4)cc3C)ncc2Cl)n[nH]1 [Compound 75, 1-(4-(4-(5-chloro-4-(5-methyl-1H-pyrazol-3-ylamino)pyrimidin-2-ylamino)-2,5-dimethylphenyl)piperidin-1-yl)-2-(dimethylamino)ethanone] | 0.011
13 | CCc1noc(CN2CCC(c3cc(F)c(Nc4ncc(Cl)c(Nc5cc(C)[nH]n5)n4)cc3C)CC2)n1 [Compound 284, 5-chloro-N2-(4-(1-((3-ethyl-1,2,4-oxadiazol-5-yl)methyl)piperidin-4-yl)-2-fluoro-5-methylphenyl)-N4-(5-methyl-1H-pyrazol-3-yl)pyrimidine-2,4-diamine] | 0.033
14 | Cc1cc(Nc2nc(Nc3cc(C)c(C4CCN(C(=O)CN(C)C)CC4)cc3F)ncc2Cl)n[nH]1 [Compound 73, 1-(4-(4-(5-chloro-4-(5-methyl-1H-pyrazol-3-ylamino)pyrimidin-2-ylamino)-5-fluoro-2-methylphenyl)piperidin-1-yl)-2-(dimethylamino)ethanone] | 0.019
15 | Cc1cc(Nc2nc(Nc3cc(C)c(C4CCN(C5CCC5)CC4)cc3F)ncc2Cl)n[nH]1 [Compound 272, 5-chloro-N2-(4-(1-cyclobutylpiperidin-4-yl)-2-fluoro-5-methylphenyl)-N4-(5-methyl-1H-pyrazol-3-yl)pyrimidine-2,4-diamine] | 0.05
16 | Cc1cc(Nc2nc(Nc3cc(C)c(C4CCN(Cc5c(C)noc5C)CC4)cc3F)ncc2Cl)n[nH]1 [Compound 19, 5-Chloro-N2-(4-(1-((3,5-dimethylisoxazol-4-yl)methyl)piperidin-4-yl)-2-fluoro-5-methylphenyl)-N4-(5-methyl-1H-pyrazol-3-yl)pyrimidine-2,4-diamine] | 0.056
17 | Cc1cc(Nc2nc(Nc3cc(C)c(C4CCOC(=O)C4)cc3C)ncc2Cl)n[nH]1 (stereo not drawn) [Compound 152, 4-(4-(5-chloro-4-(5-methyl-1H-pyrazol-3-ylamino)pyrimidin-2-ylamino)-2,5-dimethylphenyl)tetrahydro-2H-pyran-2-one] | 0.155
18 | CNC(=O)CN1CCC(c2cc(C)c(Nc3ncc(Cl)c(Nc4cc(C)[nH]n4)n3)cc2OC)CC1 [Compound 46, 2-(4-(4-(5-chloro-4-(5-methyl-1H-pyrazol-3-ylamino)pyrimidin-2-ylamino)-2-methoxy-5-methylphenyl)piperidin-1-yl)-N-methylacetamide] | 0.013
19 | Cc1cc(Nc2nc(Nc3cc(C)c(C4CCN(Cc5noc(C)n5)CC4)cc3F)ncc2Cl)n[nH]1 [Compound 292, 5-chloro-N2-(2-fluoro-5-methyl-4-(1-((5-methyl-1,2,4-oxadiazol-3-yl)methyl)piperidin-4-yl)phenyl)-N4-(5-methyl-1H-pyrazol-3-yl)pyrimidine-2,4-diamine] | 0.023
20 | Cc1cc(Nc2nc(Nc3cc(C)c(C4CCN(CCC(N)=O)CC4)cc3C)ncc2Cl)n[nH]1 [Compound 236, 3-(4-(4-(5-Chloro-4-(5-methyl-1H-pyrazol-3-ylamino)pyrimidin-2-ylamino)-2,5-dimethylphenyl)piperidin-1-yl)propanamide] | 0.059
21 | Cc1cc(Nc2nc(Nc3cc(C)c(C4CCN(C(=O)CN5CCN(C)CC5)CC4)cc3F)ncc2Cl)n[nH]1 [Compound 105, 1-(4-(4-(5-chloro-4-(5-methyl-1H-pyrazol-3-ylamino)pyrimidin-2-ylamino)-5-fluoro-2-methylphenyl)piperidin-1-yl)-2-(4-methylpiperazin-1-yl)ethanone] | 0.051
22 | Cc1cc(Nc2nc(Nc3cc(C)c(C4CCN(Cc5cncnc5)CC4)cc3C)ncc2Cl)n[nH]1 [Compound 317, 5-chloro-N2-(2,5-dimethyl-4-(1-(pyrimidin-5-ylmethyl)piperidin-4-yl)phenyl)-N4-(5-methyl-1H-pyrazol-3-yl)pyrimidine-2,4-diamine] | 0.004
23 | CNC(=O)CN1CCC(c2cc(F)c(Nc3ncc(Cl)c(Nc4cc(C5CC5)[nH]n4)n3)cc2C)CC1 [Compound 32, 2-(4-(4-(5-chloro-4-(5-cyclopropyl-1H-pyrazol-3-ylamino)pyrimidin-2-ylamino)-5-fluoro-2-methylphenyl)piperidin-1-yl)-N-methylacetamide] | 0.042
24 | Cc1cc(Nc2nc(Nc3cc(C)c(C4CCN(C(=O)C5(N(C)C)CC5)CC4)cc3F)ncc2Cl)n[nH]1 [Compound 94, (4-(4-(5-chloro-4-(5-methyl-1H-pyrazol-3-ylamino)pyrimidin-2-ylamino)-5-fluoro-2-methylphenyl)piperidin-1-yl)(1-(dimethylamino)cyclopropyl)methanone] | 0.013
25 | Cc1cc(Nc2nc(Nc3cc(C)c(C4CCN(Cc5cccnc5)CC4)cc3C)ncc2Cl)n[nH]1 [Compound 308, 5-chloro-N2-(2,5-dimethyl-4-(1-(pyridin-3-ylmethyl)piperidin-4-yl)phenyl)-N4-(5-methyl-1H-pyrazol-3-yl)pyrimidine-2,4-diamine] | 0.006
26 | Cc1cc(Nc2nc(Nc3cc(C)c(C4CCN(C(=O)N(C)C)CC4)cc3C)ncc2Cl)n[nH]1 [Compound 70, 4-(4-(5-chloro-4-(5-methyl-1H-pyrazol-3-ylamino)pyrimidin-2-ylamino)-2,5-dimethylphenyl)-N,N-dimethylpiperidine-1-carboxamide] | 0.006
27 | Cc1cc(Nc2nc(Nc3cc(C)c(C4CCN(Cc5cccnc5)CC4)cc3F)ncc2Cl)n[nH]1 [Compound 297, 5-chloro-N2-(2-fluoro-5-methyl-4-(1-(pyridin-3-ylmethyl)piperidin-4-yl)phenyl)-N4-(5-methyl-1H-pyrazol-3-yl)pyrimidine-2,4-diamine] | 0.079
28 | COC(=O)c1cc(Nc2ncc(Cl)c(Nc3cc(C)[nH]n3)n2)c(C)cc1C1CCN(C)CC1 [Compound 287, methyl 5-(5-chloro-4-(5-methyl-1H-pyrazol-3-ylamino)pyrimidin-2-ylamino)-4-methyl-2-(1-methylpiperidin-4-yl)benzoate] | 0.027
29 | Cc1cc(Nc2nc(Nc3cc(C)c(C4CCN(C)CC4)cc3F)ncc2Cl)no1 [Compound 159, 5-chloro-N2-(2-fluoro-5-methyl-4-(1-methylpiperidin-4-yl)phenyl)-N4-(5-methylisoxazol-3-yl)pyrimidine-2,4-diamine] | 0.073
30 | CNC(=O)CN1CCCC(c2cc(C)c(Nc3ncc(Cl)c(Nc4cc(C)[nH]n4)n3)cc2C)C1 (stereo not drawn) [Compound 44, 2-(3-(4-(5-chloro-4-(5-methyl-1H-pyrazol-3-ylamino)pyrimidin-2-ylamino)-2,5-dimethylphenyl)piperidin-1-yl)-N-methylacetamide] | 0.015
